Columns and labels:
reactive oxygen species = assay: DCFH-DA oxidative stress detection; format: cell-based; details: DCFH-DA assay, Figure S8
Experimental: 2.10 Oxidative stress detection
Cells were cultured in 96-well plates and washed with prewarmed HBSS buffer. A solution of 2',7'-dichlorofluorescein-diacetate (DCFH-DA) (100 μM) was added to the cells, followed by 30 minutes of incubation. […]
dissolved in HBSS buffer for an additional 2 hours. Control cells received vehicle (DMSO), or […]

[1] = test system: chymotrypsin-like activity of the 26S proteasome; assay: Proteasome activity assay in HEK293 cell lysates; format: cell-based, human; details: 7.5 μM, 16 h; for Proteasome chymotrypsin-like activity, geometric mean of ratios: treatment/control, ratio paired t test, HEK293; for Proteasome chymotrypsin-like activity, geometric mean (treatment): HEK293 lysates, 37 °C, DMSO control = 1
Experimental: Building on previous findings, we investigated how selected RUN compounds influence proteasomal function itself. Specifically, we examined the chymotrypsin-like activity of the 26S proteasome following a 16 hour treatment with 7.5 μM RUN compounds in the HEK293 cell line. […] In addition, two other cell lines, MCF7 and SH-SY5Y, were measured (see the SI, Fig. S6).
Fig. 3 (A) HEK293 cells were treated with RUN compounds at a concentration of 7.5 μM for 16 hours. DMSO was used as a vehicle control. Proteasome chymotrypsin-like activity was measured in cell lysates at 37 °C. Data came from three biological replicates (n = 3). Statistical analysis was done using ratio paired t-tests corrected for multiple comparisons with Holm–Šídák's method (α = 0.05). *p < 0.05. Detailed results of the analysis are shown in SI Table S7. (B) RUN-89 protects against polyQ-mediated toxicity in an NFE2L1-dependent manner. HCT116 parental cells (WT) and two independent DDI2 knockout clones (KO 04 and KO 11), in which NFE2L1 activation is impaired, were transiently transfected with plasmids encoding non-aggregating EGFP-HttQ23 or aggregation-prone EGFP-HttQ74. Cells were treated with 1 or 3 μM RUN-89 for 48 hours, and viability was measured using the alamarBlue assay. […] Data are shown as the Geomean ± GeoSD from four independent biological replicates (n = 4). Statistical analysis was performed on log2-transformed values using two-way repeated-measures ANOVA followed by Šídak's multiple comparison test. (C right) Parental SH-SY5Y cells (without α-synuclein expression) were treated in the same manner. (C left) The protective effect of RUN compounds was assessed by rotenone-induced α-synuclein proteotoxicity in SH-SY5Y cells, which mimics the PD-like phenotype. Cells were pre-treated with increasing concentrations of RUN compounds (0.312, 0.625, 1.25, and 2.5 μM) for 4 hours and then rotenone (1.125 μM) treatment was done for 24 hours. […]
2.7 Proteasome activity assay
The corresponding cell lines (HEK293, MCF7, or SH-SY5Y) were seeded into 6-well plates and allowed to adhere overnight under standard culture conditions. On the following day, HEK293 cells were treated with 7.5 µM RUN compounds, whereas MCF7 and SH-SY5Y cells were treated with 5 µM RUN compounds, for 16 hours each. After treatment, cells were harvested, resuspended in lysis buffer (50 mM HEPES, pH 7.5; 5 mM EDTA; 150 mM NaCl; 2 mM ATP; 1% Triton), and centrifuged at 15,000 rpm for 15 minutes at 4 °C. The resulting lysates (25 µg total protein) were incubated with 200 µM of the fluorogenic substrate Suc-Leu-Leu-Val-Tyr-AMC (Bachem, I1395) in assay buffer (50 mM Tris, pH 8.0; 10 mM MgCl₂; 1 mM ATP; 1 mM DTT) at 37 °C. Free AMC release was detected by measuring fluorescence at 360/460 nm. […]
HEK293 cells were seeded in 6-well plates and incubated for 24 hours before being transfected with a plasmid containing the CMV-XBP-Gluc reporter using Lipofectamine 2000.(4) After 6 hours, the transfected cells were subsequently transferred to 384-well plates, stabilized overnight, and treated with the proteasome inhibitor and ER stress inducer MG132 and/or various concentrations of RUN compounds (1, 5, and 10 µM) or vehicle (DMSO) for 16 hours. Luciferase activity was normalized to cell viability, which was assessed using the alamarBlue assay. The results are expressed as the fold change compared with the DMSO control, with the experiment conducted in biological triplicate. […]

Structure (SMILES) | Geometric mean, Treatment (Control = 1) (reactive oxygen species; 5 μM) | Geometric mean, Treatment (Control = 1) (reactive oxygen species; 25 μM) | Proteasome chymotrypsin-like activity, geometric mean of ratios [1] | Proteasome chymotrypsin-like activity, geometric mean (treatment) [1]
COc1ccc(/C=C2\CC(NC(=O)C3CCCC3)C/C(=C\c3ccc(OC)c(OC)c3)C2=O)cc1OC (centres unmarked) [RUN-89] | 1.09 | 1.13 | 1.36 | 
COc1ccc(/C=C2\CC(N)C/C(=C\c3ccc(OC)c(OC)c3)C2=O)cc1OC (centres unmarked) [RUN-81] | 0.96 | 0.99 | 1.21 | 1.21
COc1ccc(/C=C2\CC(NC(=O)c3ccccn3)C/C(=C\c3ccc(OC)c(OC)c3)C2=O)cc1OC (centres unmarked) [RUN-94] | 0.97 | 1.00 | 1.21 | 1.21
